In ChEMBL document CHEMBL4308841, “Synthesis, in vitro antiproliferative activity, and kinase inhibitory effects of pyrazole-containing diarylureas and diarylamides” (Eur J Med Chem, 2018):

What was measured:
[1] = tested on: SF-295; assay: Growth inhibition of human SF295 cells assessed as cell growth at 100 uM incubated for 48 hrs by sulforhodamine B assay relative to control; type: functional; conditions: SF-295, 48 h, read-out: Activity
[2] = tested on: MDA-MB-231; assay: Growth inhibition of human MDA-MB-231 cells assessed as cell growth at 0.01 uM incubated for 48 hrs by sulforhodamine B assay relative to control; type: functional; conditions: MDA-MB-231, 48 h, read-out: Activity
[3] = tested on: NCI/ADR-RES; assay: Growth inhibition of human NCI/ADR-RES cells assessed as cell growth at 1 uM incubated for 48 hrs by sulforhodamine B assay relative to control; type: functional; conditions: read-out: Activity
[4] = tested on: BT-549; assay: Growth inhibition of human BT549 cells assessed as cell growth at 0.01 uM incubated for 48 hrs by sulforhodamine B assay relative to control; type: functional; conditions: BT-549, 48 h, read-out: Activity
[5] = tested on: SK-OV-3; assay: Growth inhibition of human SKOV3 cells assessed as cell growth at 1 uM incubated for 48 hrs by sulforhodamine B assay relative to control; type: functional; conditions: SK-OV-3, 48 h, read-out: Activity
[6] = tested on: OVCAR-4; assay: Growth inhibition of human OVCAR4 cells assessed as cell growth at 0.1 uM incubated for 48 hrs by sulforhodamine B assay relative to control; type: functional; conditions: OVCAR-4, 48 h, read-out: Activity
[7] = tested on: MCF7; assay: Growth inhibition of human MCF7 cells assessed as cell growth at 0.01 uM incubated for 48 hrs by sulforhodamine B assay relative to control; type: functional; conditions: MCF7, 48 h, read-out: Activity
[8] = tested on: T47D; assay: Growth inhibition of human T47D cells assessed as cell growth at 1 uM incubated for 48 hrs by sulforhodamine B assay relative to control; type: functional; conditions: read-out: Activity
[9] = tested on: NCI/ADR-RES; assay: Growth inhibition of human NCI/ADR-RES cells assessed as cell growth at 100 uM incubated for 48 hrs by sulforhodamine B assay relative to control; type: functional; conditions: read-out: Activity
[10] = tested on: SNB-19; assay: Growth inhibition of human SNB19 cells assessed as cell growth at 0.01 uM incubated for 48 hrs by sulforhodamine B assay relative to control; type: functional; conditions: SNB-19, 48 h, read-out: Activity
[11] = tested on: NCI-H522; assay: Growth inhibition of human NCI-H522 cells assessed as cell growth at 1 uM incubated for 48 hrs by sulforhodamine B assay relative to control; type: functional; conditions: NCI-H522, 48 h, read-out: Activity
[12] = tested on: 786-0; assay: Growth inhibition of human 786-0 cells incubated for 48 hrs by sulforhodamine B assay; type: functional, cell-based; conditions: 786-0, 48 h
[13] = tested on: K562; assay: Growth inhibition of human K562 cells assessed as cell growth at 0.01 uM incubated for 48 hrs by sulforhodamine B assay relative to control; type: functional; conditions: K562, 48 h, read-out: Activity
[14] = tested on: MDA-MB-435; assay: Growth inhibition of human MDA-MB-435 cells incubated for 48 hrs by sulforhodamine B assay; type: functional, cell-based; conditions: MDA-MB-435, 48 h
[15] = tested on: SF-295; assay: Growth inhibition of human SF295 cells assessed as cell growth at 1 uM incubated for 48 hrs by sulforhodamine B assay relative to control; type: functional; conditions: SF-295, 48 h, read-out: Activity
[16] = tested on: SK-MEL-28; assay: Growth inhibition of human SK-MEL-28 cells assessed as cell growth at 0.01 uM incubated for 48 hrs by sulforhodamine B assay relative to control; type: functional; conditions: SK-MEL-28, 48 h, read-out: Activity
[17] = tested on: SK-OV-3; assay: Growth inhibition of human SKOV3 cells assessed as cell growth at 100 uM incubated for 48 hrs by sulforhodamine B assay relative to control; type: functional; conditions: SK-OV-3, 48 h, read-out: Activity
[18] = tested on: HCT-15; assay: Growth inhibition of human HCT15 cells assessed as cell growth at 100 uM incubated for 48 hrs by sulforhodamine B assay relative to control; type: functional; conditions: HCT-15, 48 h, read-out: Activity
[19] = tested on: Malme-3M; assay: Growth inhibition of human MALME-3M cells assessed as cell growth at 0.1 uM incubated for 48 hrs by sulforhodamine B assay relative to control; type: functional; conditions: read-out: Activity
[20] = tested on: SF-268; assay: Growth inhibition of human SF268 cells assessed as cell growth at 1 uM incubated for 48 hrs by sulforhodamine B assay relative to control; type: functional; conditions: SF-268, 48 h, read-out: Activity
[21] = tested on: U-251; assay: Growth inhibition of human U251 cells assessed as cell growth at 0.01 uM incubated for 48 hrs by sulforhodamine B assay relative to control; type: functional; conditions: U-251, 48 h, read-out: Activity
[22] = tested on: UO-31; assay: Growth inhibition of human UO31 cells assessed as cell growth at 0.1 uM incubated for 48 hrs by sulforhodamine B assay relative to control; type: functional; conditions: UO-31, 48 h, read-out: Activity
[23] = tested on: SF-295; assay: Growth inhibition of human SF295 cells incubated for 48 hrs by sulforhodamine B assay; type: functional, cell-based; conditions: SF-295, 48 h
[24] = tested on: SF-539; assay: Growth inhibition of human SF539 cells assessed as cell growth at 0.01 uM incubated for 48 hrs by sulforhodamine B assay relative to control; type: functional; conditions: SF-539, 48 h, read-out: Activity
[25] = tested on: NCI-H226; assay: Growth inhibition of human NCI-H226 cells assessed as cell growth at 1 uM incubated for 48 hrs by sulforhodamine B assay relative to control; type: functional; conditions: NCI-H226, 48 h, read-out: Activity
[26] = tested on: LOX IMVI; assay: Growth inhibition of human LOXIMVI cells assessed as cell growth at 0.1 uM incubated for 48 hrs by sulforhodamine B assay relative to control; type: functional; conditions: read-out: Activity
[27] = tested on: RPMI-8226; assay: Growth inhibition of human RPMI8226 cells assessed as cell growth at 1 uM incubated for 48 hrs by sulforhodamine B assay relative to control; type: functional; conditions: RPMI-8226, 48 h, read-out: Activity
[28] = tested on: K562; assay: Growth inhibition of human K562 cells incubated for 48 hrs by sulforhodamine B assay; type: functional, cell-based; conditions: K562, 48 h
[29] = tested on: SNB-75; assay: Growth inhibition of human SNB75 cells assessed as cell growth at 100 uM incubated for 48 hrs by sulforhodamine B assay relative to control; type: functional; conditions: SNB-75, 48 h, read-out: Activity
[30] = tested on: MOLT-4; assay: Growth inhibition of human MOLT4 cells incubated for 48 hrs by sulforhodamine B assay; type: functional, cell-based; conditions: MOLT-4, 48 h
[31] = read-out: LC50 (the source's name)
[32] = read-out: pLC50 (the source's name) (converted)

Structure (SMILES): COc1cc(Cl)cc(-c2nn(-c3cccc(NC(=O)c4cccc(C(F)(F)F)c4)c3)cc2-c2ccncc2)c1
- growth at 100 µM [1]: 35%
- growth at 0.01 µM [2]: 102%
- growth at 1 µM [3]: 89%
- growth at 0.01 µM [4]: 108%
- growth at 1 µM [5]: 99%
- growth at 0.1 µM [6]: 95%
- growth at 0.01 µM [7]: 93%
- growth at 1 µM [8]: 92%
- growth at 100 µM [9]: 31%
- growth at 0.01 µM [10]: 96%
- growth at 1 µM [11]: 54%
- GI50 ([12]; read-out: GI50): 1.57 µM
- CC50 [12, 31]: > 100 µM
- TGI ([12]; read-out: TGI): > 100 µM
- GI50 ([12]; read-out: pGI50 (converted)): 16.6 µM
- CC50 [12, 32]: > 100 µM
- TGI ([12]; read-out: pTGI (converted)): > 100 µM
- growth at 0.01 µM [13]: 108%
- GI50 ([14]; read-out: GI50): > 100 µM
- LC50 ([14]; read-out: LC50): > 100 µM
- TGI ([14]; read-out: TGI): > 100 µM
- GI50 ([14]; read-out: pGI50 (converted)): > 100 µM
- LC50 ([14]; read-out: pLC50 (converted)): > 100 µM
- TGI ([14]; read-out: pTGI (converted)): > 100 µM
- growth at 1 µM [15]: 57%
- growth at 0.01 µM [16]: 105%
- growth at 100 µM [17]: 78%
- growth at 100 µM [18]: 28%
- growth at 0.1 µM [19]: 90%
- growth at 1 µM [20]: 100%
- growth at 0.01 µM [21]: 94%
- growth at 0.1 µM [22]: 88%
- CC50 [23, 31]: > 100 µM
- TGI ([23]; read-out: TGI): > 100 µM
- GI50 ([23]; read-out: pGI50 (converted)): 3.89 µM
- CC50 [23, 32]: > 100 µM
- TGI ([23]; read-out: pTGI (converted)): > 100 µM
- growth at 0.01 µM [24]: 93%
- growth at 1 µM [25]: 54%
- growth at 0.1 µM [26]: 95%
- growth at 1 µM [27]: 79%
- GI50 ([28]; read-out: GI50): 4.59 µM
- LC50 ([28]; read-out: LC50): > 100 µM
- TGI ([28]; read-out: TGI): > 100 µM
- GI50 ([28]; read-out: pGI50 (converted)): 4.68 µM
- LC50 ([28]; read-out: pLC50 (converted)): > 100 µM
- TGI ([28]; read-out: pTGI (converted)): > 100 µM
- growth at 100 µM [29]: 49%
- GI50 ([30]; read-out: GI50): 2.73 µM
- CC50 [30, 31]: > 100 µM
- TGI ([30]; read-out: TGI): > 100 µM
- GI50 ([30]; read-out: pGI50 (converted)): 2.75 µM
- CC50 [30, 32]: > 100 µM
- TGI ([30]; read-out: pTGI (converted)): > 100 µM

Structure (SMILES): COc1cc(Cl)cc(-c2nn(-c3cccc(NC(=O)Nc4cccc(C(F)(F)F)c4)c3)cc2-c2ccncc2)c1
- growth at 100 µM [1]: -53%
- growth at 0.01 µM [2]: 102%
- growth at 1 µM [3]: 65%
- growth at 0.01 µM [4]: 107%
- growth at 1 µM [5]: 103%
- growth at 0.1 µM [6]: 98%
- growth at 0.01 µM [7]: 91%
- growth at 1 µM [8]: 58%
- growth at 100 µM [9]: -22%
- growth at 0.01 µM [10]: 98%
- growth at 1 µM [11]: 33%
- GI50 ([12]; read-out: GI50): 1.94 µM
- CC50 [12, 31]: 67.1 µM
- TGI ([12]; read-out: TGI): 57.5 µM
- GI50 ([12]; read-out: pGI50 (converted)): 1.95 µM
- CC50 [12, 32]: 67.6 µM
- TGI ([12]; read-out: pTGI (converted)): 6.76 µM
- growth at 0.01 µM [13]: 104%
- GI50 ([14]; read-out: GI50): 1.74 µM
- LC50 ([14]; read-out: LC50): 83.7 µM
- TGI ([14]; read-out: TGI): 35.2 µM
- GI50 ([14]; read-out: pGI50 (converted)): 1.74 µM
- LC50 ([14]; read-out: pLC50 (converted)): 8.32 µM
- TGI ([14]; read-out: pTGI (converted)): 3.8 µM
- growth at 1 µM [15]: 45%
- growth at 0.01 µM [16]: 99%
- growth at 100 µM [17]: -3%
- growth at 100 µM [18]: -72%
- growth at 0.1 µM [19]: 50%
- growth at 1 µM [20]: 79%
- growth at 0.01 µM [21]: 95%
- growth at 0.1 µM [22]: 50%
- GI50 ([23]; read-out: GI50): 0.753 µM
- CC50 [23, 31]: 75.9 µM
- TGI ([23]; read-out: TGI): 45.2 µM
- GI50 ([23]; read-out: pGI50 (converted)): 0.776 µM
- CC50 [23, 32]: 77.6 µM
- TGI ([23]; read-out: pTGI (converted)): 4.57 µM
- growth at 0.01 µM [24]: 100%
- growth at 1 µM [25]: 77%
- growth at 0.1 µM [26]: 97%
- growth at 1 µM [27]: 22%
- GI50 ([28]; read-out: GI50): 0.823 µM
- LC50 ([28]; read-out: LC50): > 100 µM
- TGI ([28]; read-out: TGI): 14.4 µM
- GI50 ([28]; read-out: pGI50 (converted)): 0.832 µM
- LC50 ([28]; read-out: pLC50 (converted)): > 100 µM
- TGI ([28]; read-out: pTGI (converted)): 14.5 µM
- growth at 100 µM [29]: -17%
- GI50 ([30]; read-out: GI50): 1.13 µM
- CC50 [30, 31]: > 100 µM
- TGI ([30]; read-out: TGI): 43.5 µM
- GI50 ([30]; read-out: pGI50 (converted)): 1.12 µM
- CC50 [30, 32]: > 100 µM
- TGI ([30]; read-out: pTGI (converted)): 4.37 µM
